molecular target: Beta-lactamase (Pseudomonas aeruginosa, UniProt Q79MP6); assay: IMP-1 metallo-beta-lactamase inhibitors, dose response, selectivity assay for VIM-2 inhibitor project, biochemical, epi-absorbance (AID 1920)
Sequence (Q79MP6 whole entry): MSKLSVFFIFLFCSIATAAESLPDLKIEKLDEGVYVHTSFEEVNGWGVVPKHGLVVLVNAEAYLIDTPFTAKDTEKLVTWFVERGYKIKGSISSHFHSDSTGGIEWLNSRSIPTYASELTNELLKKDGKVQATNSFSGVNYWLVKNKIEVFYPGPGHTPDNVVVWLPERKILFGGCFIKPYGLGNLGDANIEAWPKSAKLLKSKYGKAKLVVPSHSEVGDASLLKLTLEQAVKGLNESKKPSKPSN

Row | Structure (SMILES) | IC50 [µM]
1 | COc1ccc(C(=O)C2C(=O)C(=O)N(Cc3ccco3)C2c2cc(OC)ccc2OC)cc1 (configuration not stated) [(4E)-5-(2,5-dimethoxyphenyl)-1-(2-furanylmethyl)-4-[hydroxy-(4-methoxyphenyl)methylidene]pyrrolidine-2,3-dione] | > 59.6
2 | O=C1C(=O)N(Cc2cccnc2)C(c2ccccn2)C1C(=O)c1ccc(F)cc1 (configuration not stated) [(4Z)-4-[(4-fluorophenyl)-hydroxy-methylene]-5-(2-pyridyl)-1-(3-pyridylmethyl)pyrrolidine-2,3-quinone] | > 59.6
3 | O=C1C(=O)N(Cc2cccnc2)C(c2ccccn2)C1C(=O)c1cccs1 (configuration not stated) [3-hydroxy-5-(2-pyridinyl)-1-(3-pyridinylmethyl)-4-(2-thienylcarbonyl)-1,5-dihydro-2H-pyrrol-2-one] | > 59.6
4 | O=C1C(=O)N(Cc2cccnc2)C(c2ccccn2)C1C(=O)c1ccccc1 (configuration not stated) [(4Z)-4-[hydroxy(phenyl)methylene]-5-(2-pyridyl)-1-(3-pyridylmethyl)pyrrolidine-2,3-quinone] | > 59.6
5 | COc1cc(OC)c(OC)cc1C=NNC(=O)Cc1c(C)[nH][nH]c1=O [MLS000555854] | > 59.6
6 | COc1ccc(OC)c(C=NNC(=O)Cc2c(C)[nH][nH]c2=O)c1 [SMR000147372] | > 59.6
7 | COc1ccc(OC)c(C2C(C(=O)c3ccco3)C(=O)C(=O)N2Cc2cccnc2)c1 (configuration not stated) [2-(2,5-dimethoxyphenyl)-3-(furan-2-carbonyl)-4-hydroxy-1-(pyridin-3-ylmethyl)-2H-pyrrol-5-one] | > 59.6

From BindingDB's records for doi:10.7270/Q2SF2TM0 (The Scripps Research Institute Molecular Screening Center, 2009)
